According to US7202255B2, “Substituted [1,4] benzodioxino[2,3-e] isoindole derivatives, method for preparing and pharmaceutical compositions containing same” (Les Laboratoires Servier, priority 2002, dated 2007):
Structures can show the parent of a compound that is named as a salt.

melting point | SMILES
277 °C (dec.) | CN1C(=O)c2c(Oc3ccccc3O)cc3[nH]c4ccc(O)cc4c3c2C1=O [Example 32, 9-Hydroxy-4-(2-hydroxyphenoxy)-2-methylpyrrolo[3,4-c]-carbazole-1,3(2H,6H)-dione]
150 °C | CN(C)CCn1c(=O)c2c3oc4ccccc4[nH]c3c3oc4ccccc4oc3c2c1=O [Example 2, 7-[2-(Dimethylamino)ethyl][1,4]benzodioxino[2,3-a]pyrrolo[3,4-c]-phenoxazine-6,8(7H,15H)-dione]
337 °C (dec.) | CN(C)CCn1c(=O)c2c3oc4ccccc4oc3c3[nH]c4ccc(F)cc4c3c2c1=O [Example 12, 7-[2-(Dimethylamino)ethyl]-10-fluoro[1,4]benzodioxino[2,3-a]-pyrrolo[3,4-c]carbazole-6,8(7H,13H)-dione]
186 °C | CN1C(=O)c2c(Oc3ccccc3OS(=O)(=O)C(F)(F)F)cc3c(c2C1=O)c1ccc(OCc2ccccc2)cc1n3C(=O)OC(C)(C)C [Example 40, tert-Butyl 8-(benzyloxy)-2-methyl-1,3-dioxo-4-(2-{[(trifluoro-methyl)sulphonyl]oxy}phenoxy)-2,3-dihydropyrrolo[3,4-c]-carbazole-6(1H)-carboxylate]
> 340 °C | O=c1[nH]c(=O)c2c1c1oc3ccccc3oc1c1[nH]c3cc(O)ccc3c12 [Example 28, 11-Hydroxy[1,4]benzodioxino[2,3-a]pyrrolo[3,4-c]carbazole-6,8(7H,13H)-dione]
182 °C | CN1C(=O)c2c(Oc3ccccc3OS(=O)(=O)C(F)(F)F)cc3c(c2C1=O)c1ccccc1n3C(=O)OC(C)(C)C [Example 37, tert-Butyl 2-methyl-1,3-dioxo-4-(2-{[(trifluoromethyl)sulphonyl]-oxy}phenoxy)-2,3-dihydropyrrolo[3,4-c]carbazole-6(1H)-carboxylate]
> 360 °C | CN(C)CCn1c(=O)c2c3oc4ccccc4oc3c3[nH]c4ccc(O)cc4c3c2c1=O [Example 20, 7-[2-(Dimethylamino)ethyl]-10-hydroxy[1,4]benzodioxino[2,3-a]-pyrrolo[3,4-c]carbazole-6,8(7H,13H)-dione]
360 °C | Cn1c(=O)c2c3oc4ccccc4oc3c3[nH]c4cc(O)ccc4c3c2c1=O [Example 22, 11-Hydroxy-7-methyl[1,4]benzodioxino[2,3-a]pyrrolo[3,4-c]-carbazole-6,8(7H,13H)-dione]
130 °C | Cn1c(=O)c2c3oc4ccccc4oc3c3c(oc4ccccc4n3C(=O)Oc3ccccc3)c2c1=O [Example 1, Phenyl 7-methyl-6,8-dioxo-7,8-dihydro[1,4]benzodioxino[2,3-a]-pyrrolo[3,4-c]phenoxazine-15(6H)carboxylate]
262 °C (dec.) | CN(C)CCn1c(=O)c2c3oc4ccccc4oc3c3[nH]c4cc(OCc5ccccc5)ccc4c3c2c1=O [Example 23, 11-(Benzyloxy)-7-[2-(dimethylamino)ethyl][1,4]benzodioxino[2,3-a]-pyrrolo[3,4-c]carbazole-6,8(7H,13H)-dione]
> 333 °C | COc1ccccc1Oc1cc2c(c3c1C(=O)N(C)C3=O)c1ccccc1n2C(=O)OC(C)(C)C [Example 34, tert-Butyl 4-(2-methoxyphenoxy)-2-methyl-1,3-dioxo-2,3-dihydropyrrolo[3,4-c]carbazole-6(1H)-carboxylate]
200 °C | CN1C(=O)c2c(Oc3ccccc3O)cc3[nH]c4cc(O)ccc4c3c2C1=O [Example 41, 8-Hydroxy-4-(2-hydroxyphenoxy)-2-methylpyrrolo[3,4-c]-carbazole-1,3(2H,6H)-dione]
170 °C | CN1C(=O)c2c(Oc3ccccc3O)cc3c(c2C1=O)c1cc(OCc2ccccc2)ccc1n3C(=O)OC(C)(C)C [Example 31, tert-Butyl 9-(benzyloxy)-4-(2-hydroxyphenoxy)-2-methyl-1,3-dioxo-2,3-dihydropyrrolo[3,4-c]carbazole-6(1H)-carboxylate]
228 °C | COc1ccccc1Oc1cc2[nH]c3ccccc3c2c2c1C(=O)N(C)C2=O [Example 35, 4-(2-Methoxyphenoxy)-2-methylpyrrolo[3,4-c]carbazole-1,3(2H,6H)-dione]
> 360 °C | CN(C)CCn1c(=O)c2c3oc4ccccc4oc3c3[nH]c4cc(O)ccc4c3c2c1=O [Example 24, 7-[2-(Dimethylamino)ethyl]-11-hydroxy[1,4]benzodioxino[2,3-a]-pyrrolo[3,4-c]carbazole-6,8(7H,13H)-dione]
301 °C (dec.) | CN(C)CCn1c(=O)c2c3oc4ccccc4oc3c3[nH]c4cc(F)ccc4c3c2c1=O [Example 14, 7-[2-(Dimethylamino)ethyl]-11-fluoro[1,4]benzodioxino[2,3-a]-pyrrolo[3,4-c]carbazole-6,8(7H,13H)-dione]
182 °C (dec.) | CN1C(=O)c2c(Oc3ccccc3O)cc3c(c2C1=O)c1ccccc1n3C(=O)OC(C)(C)C [Example 33, tert-Butyl 4-(2-hydroxyphenoxy)-2-methyl-1,3-dioxo-2,3-dihydropyrrolo[3,4-c]carbazole-6(1H)-carboxylate]
214 °C | CN1C(=O)c2c(Oc3ccccc3OS(=O)(=O)C(F)(F)F)cc3[nH]c4ccccc4c3c2C1=O (as salt: methanesulphonate) [Example 38, 2-[(2-Methyl-1,3-dioxo-1,2,3,6-tetrahydropyrrolo[3,4-c]carbazol-4-yl)oxy]phenyl trifluoromethanesulphonate]
> 250 °C | Cn1c(=O)c2c3oc4ccccc4oc3c3c(oc4cccnc4n3C(=O)Oc3ccccc3)c2c1=O [Example 3, Phenyl 7-methyl-6,8-dioxo-7,8-dihydro[1,4]benzodioxino[2,3-e]-pyrido[2′,3′:5,6][1,4]oxazino[3,2-g]isoindole-15(6H)-carboxylate]
> 304 °C | CC(C)(C)OC(=O)n1c2ccc(OCc3ccccc3)cc2c2c3c(=O)[nH]c(=O)c3c3oc4ccccc4oc3c21 [Example 25, tert-Butyl 10-(benzyloxy)-6,8-dioxo-7,8-dihydro[1,4]benzo-dioxino[2,3-a]pyrrolo[3,4-c]carbazole-13(6H)-carboxylate]
254 °C (dec.) | CN(C)CCn1c(=O)c2c3oc4ccccc4oc3c3[nH]c4ccc(OCc5ccccc5)cc4c3c2c1=O [Example 19, 10-(Benzyloxy)-7-[2-(dimethylamino)ethyl][1,4]benzodioxino[2,3-a]-pyrrolo[3,4-c]carbazole-6,8(7H,13H)-dione]
> 350 °C | Cn1c(=O)c2c3oc4ccccc4oc3c3[nH]c4ccc(O)cc4c3c2c1=O [Example 18, 10-Hydroxy-7-methyl[1,4]benzodioxino[2,3-a]pyrrolo[3,4-c]-carbazole-6,8(7H,13H)-dione]
191 °C | CN1C(=O)c2c(Oc3ccccc3O)cc3c(c2C1=O)c1ccc(OCc2ccccc2)cc1n3C(=O)OC(C)(C)C [Example 39, tert-Butyl 8-(benzyloxy)-4-(2-hydroxyphenoxy)-2-methyl-1,3-dioxo-2,3-dihydropyrrolo[3,4-c]carbazole-6(1H)-carboxylate]
> 355 °C | Cn1c(=O)c2c3oc4ccccc4oc3c3[nH]c4ccc(F)cc4c3c2c1=O [Example 11, 10-Fluoro-7-methyl[1,4]benzodioxino[2,3-a]pyrrolo[3,4-c]carbazole-6,8(7H,13H)-dione]
> 360 °C | Cn1c(=O)c2c3oc4ccccc4oc3c3[nH]c4cc(F)ccc4c3c2c1=O [Example 13, 11-Fluoro-7-methyl[1,4]benzodioxino[2,3-a]pyrrolo[3,4-c]carbazole-6,8(7H,13H)-dione]
150 °C (dec.) | CN(C)CCn1c(=O)c2c3oc4cccnc4[nH]c3c3oc4ccccc4oc3c2c1=O [Example 4, 7-[2-(Dimethylamino)ethyl][1,4]benzodioxino[2,3-e]pyrido[2′,3′:5,6]-[1,4]oxazino[3,2-g]isoindole-6,8(7H,15H)-dione]
199 °C | CC(C)(C)OC(=O)n1c2cc(OCc3ccccc3)ccc2c2c3c(=O)[nH]c(=O)c3c3oc4ccccc4oc3c21 [Example 27, tert-Butyl 11-(benzyloxy)-6,8-dioxo-7,8-dihydro[1,4]benzo-dioxino[2,3-a]pyrrolo[3,4-c]carbazole-13(6H)-carboxylate]
198 °C | CC(C)(C)OC(=O)n1c2cc(OCc3ccccc3)ccc2c2c3c(c(Oc4ccccc4O)cc21)C(=O)NC3=O [Example 30, tert-Butyl 8-(benzyloxy)-4-(2-hydroxyphenoxy)-1,3-dioxo-2,3-dihydropyrrolo[3,4-c]carbazole-6(1H)-carboxylate]
189 °C (dec.) | Cn1c(=O)c2c3oc4ccccc4oc3c3c(c4ccccc4n3C(=O)OC(C)(C)C)c2c1=O [Example 5, tert-Butyl 7-methyl-6,8-dioxo-7,8-dihydro[1,4]benzodioxino[2,3-a]-pyrrolo[3,4-c]carbazole-13(6H)-carboxylate]
298 °C (dec.) | CN(C)CCn1c(=O)c2c3oc4ccccc4oc3c3[nH]c4ccccc4c3c2c1=O [Example 7, 7-[2-(Dimethylamino)ethyl][1,4]benzodioxino[2,3-a]pyrrolo[3,4-c]-carbazole-6,8(7H,13H)-dione]
